Experimental data reported in patent publication US8852554B2, “Radiolabelled PDE10 ligands” (Janssen Pharmaceutica NV, priority 2009, dated 2014).
“And” between values parts separate entries of the source, which are not always exact repeats. Equal entries are not always repeated.

Assay: Biodistribution studies of the 18F tracers in rats
Type: in vivo, male Wistar rats
Details: rat
Description: Biodistribution studies were carried out in healthy male Wister rats (body weight 200-500 g) at 2 min, 30 min and 60 min post injection (p.i.) (n=3/time point). For |^18F|B-4 only the 2 min and 30 min time points were studied. […] Blood and major organs were collected in tared tubes and weighed. The radioactivity in blood, organs and other body parts was measured using an automated gamma counter. The distribution of radioactivity in different parts of the body at different time points p.i. of the tracer was calculated and expressed as percentage of injected dose (% ID), and as percentage of injected dose per gram tissue (% ID/g) for the selected organs. % ID is calculated as cpm in organ/total cpm recovered. For calculation of total radioactivity in blood, blood mass was assumed to be 7% of the body mass.

## COc1ccc(COc2ccc(-c3nn(CC[18F])cc3-c3ccncc3)cc2)nc1 [[^18F]B-4]
Biodistribution studies
  retention in the PDE10A-rich region striatum: retention
i.v.
  Clearance, 2 min/30 min ratio of % ID/g (normalized for body weight), Blood: 1.36
  Clearance, 2 min/30 min ratio of % ID/g (normalized for body weight), Cerebellum: 3.82
  Clearance, 2 min/30 min ratio of % ID/g (normalized for body weight), Cerebrum total: 2.90
  Clearance, 2 min/30 min ratio of % ID/g (normalized for body weight), Cortex: 4.24
  Clearance, 2 min/30 min ratio of % ID/g (normalized for body weight), Hippocampus: 3.08
  Clearance, 2 min/30 min ratio of % ID/g (normalized for body weight), Rest of cerebrum: 2.87
  Clearance, 2 min/30 min ratio of % ID/g (normalized for body weight), Striatum: 1.80
i.v., 2 min p.i.
  % ID, Blood: 4.55 ± 0.4 % ID
  % ID, Carcass: 36.93 ± 1.3 % ID
  % ID, Cerebellum: 0.07 % ID and 0.065 ± 0.011 % ID
  % ID, Cerebrum total: 0.32 % ID and 0.317 ± 0.014 % ID
  % ID, Cortex: 0.036 ± 0.007 % ID
  % ID, Heart: 0.62 ± 0.2 % ID
  % ID, Hippocampus: 0.006 ± 0.002 % ID
  % ID, Intestines: 12.02 ± 2.1 % ID
  % ID, Kidneys: 4.99 ± 0.2 % ID
  % ID, Liver: 35.98 ± 3.1 % ID
  % ID, Lungs: 1.12 ± 0.0 % ID
  % ID, Rest of cerebrum: 0.257 ± 0.014 % ID
  % ID, Spleen + Pancreas: 2.37 ± 0.2 % ID
  % ID, Stomach: 2.8 % ID and 2.80 ± 0.2 % ID
  % ID, Striatum: 0.018 ± 0.003 % ID
  % ID, Urine: 0.28 ± 0.1 % ID
  % ID/g normalized for body weight, Blood: 0.07 ± 0.01 % ID/g × body wt. in kg
  % ID/g normalized for body weight, Cerebellum: 0.109 % ID/g × body wt. in kg and 0.109 ± 0.01 % ID/g × body wt. in kg
  % ID/g normalized for body weight, Cerebrum + Cerebellum: 0.13 ± 0.01 % ID/g × body wt. in kg
  % ID/g normalized for body weight, Cerebrum total: 0.124 ± 0.01 % ID/g × body wt. in kg
  % ID/g normalized for body weight, Cortex: 0.168 % ID/g × body wt. in kg and 0.168 ± 0.00 % ID/g × body wt. in kg
  % ID/g normalized for body weight, Heart: 0.21 ± 0.06 % ID/g × body wt. in kg
  % ID/g normalized for body weight, Hippocampus: 0.091 % ID/g × body wt. in kg and 0.091 ± 0.01 % ID/g × body wt. in kg
  % ID/g normalized for body weight, Kidneys: 0.63 ± 0.17 % ID/g × body wt. in kg
  % ID/g normalized for body weight, Liver: 1.09 ± 0.08 % ID/g × body wt. in kg
  % ID/g normalized for body weight, Lungs: 0.22 ± 0.03 % ID/g × body wt. in kg
  % ID/g normalized for body weight, Rest of cerebrum: 0.117 ± 0.01 % ID/g × body wt. in kg
  % ID/g normalized for body weight, Spleen + Pancreas: 0.55 ± 0.03 % ID/g × body wt. in kg
  % ID/g normalized for body weight, Striatum: 0.226 % ID/g × body wt. in kg and 0.226 ± 0.01 % ID/g × body wt. in kg
  % ID/g, Blood: 0.14 ± 0.04 % ID/g
  % ID/g, Cerebellum: 0.231 ± 0.031 % ID/g
  % ID/g, Cerebrum + Cerebellum: 0.269 ± 0.066 % ID/g
  % ID/g, Cerebrum total: 0.263 ± 0.029 % ID/g
  % ID/g, Cortex: 0.355 ± 0.012 % ID/g
  % ID/g, Heart: 0.45 ± 0.13 % ID/g
  % ID/g, Hippocampus: 0.193 ± 0.031 % ID/g
  % ID/g, Liver: 2.32 ± 0.28 % ID/g
  % ID/g, Lungs: 0.46 ± 0.07 % ID/g
  % ID/g, Rest of cerebrum: 0.248 ± 0.030 % ID/g
  % ID/g, Spleen + Pancreas: 1.17 ± 0.03 % ID/g
  % ID/g, Striatum: 0.467 ± 0.002 % ID/g
  striatum/blood ratio (from % ID/g normalized for body weight): 3.47
  striatum/cortex ratio (from % ID/g normalized for body weight): 1.35
  striatum/hippocampus ratio (from % ID/g normalized for body weight): 2.49
